Reference: patent US7541457B2, “Amphiphilic trisulfonated porphyrazines for photodynamic applications in medicine” (Universite de Sherbrooke, priority 2003, dated 2009)

What was measured:
[1] = system: EMT-6 murine mammary tumor cells; test: Phototoxicity (cellular photoinactivation, MTT) against EMT-6 tumor cells in vitro; assay type: cell-based; details: for LD90 (light dose for 90% cell kill): dye 1 μM, red light 660-700 nm
EMT-6 mammary tumours [2] = test: PDT of EMT-6 mammary tumors in BALB/c mice; assay type: in vivo
Procedure: All experiments were performed on male BALB/c mice (18-22g) (Charles River Breeding Laboratories, Montreal, Quebec, Canada) bearing two EMT-6 mammary tumours. The experiments were conducted following a protocol approved by the Canadian Council on Animal Care and the in-house ethics committee. Animals were allowed free access to water and food throughout the experiments. Before tumour implantation, hair on the hind legs and the backs of the mice was removed by shaving and chemical depilating (Nair, Whitehall, Mississauga, Canada). The two tumors were implanted on the backs of the animals by intradermal injection of 2-3×10^5 EMT-6 cells suspended in 0.05 ml Waymouth's growth medium.
For PDT tumor response studies, mice were used 7-10 d after tumor cell inoculation (mean external tumor size 4.5-6.0 mm diameter and approximately 2.5 mm thickness). The mice were given an intravenous administration of […] of porphyrazine dye in PBS (0.2 mL/20 g) through the tail vein. […] Mice were examined daily for 20 days following PDT in order to assess tumor response (necrosis) and recurrence.
At the highest dye dose over 50% of the animals responded with complete tumor regression as observed 3 weeks after treatment.

[3] = system: plasma extravasation in STZ-diabetic rat retinal vessels; test: PDT of plasma extravasation (Evans Blue) in STZ-diabetic rat retina; assay type: in vivo, Wistar rats; details: for Inhibition of plasma extravasation: 0.5 μmole/kg
Procedure: (§1) The long established Evans Blue technique was used to measure plasma extravasation. Under anesthesia with a 10 mg/kg mixture of Ketamine and Xylazine, 250 g male wistar rats were injected with 45 mg/kg Evans Blue through a canula placed in the jugular vein. Ten minutes later, the experimental procedure was started. At the end of experiments, the animals were sacrificed and their eyes were enucleated. Both eyes combined were placed into 300 μl of formamide and incubated at 70° C. for 18 hours. Following incubation the supernatant absorbance at 620 nm was read with a spectrophotometer. A standard curve was used to determine the concentration of Evans Blue, which was expressed in μg/ml.
After an overnight fast, diabetes was induced with a single 65 mg/kg intraperitoneal injection of streptozotocin (STZ) in 10 mM citrate buffer, pH 4.5. Animals that served as non diabetic controls received an equivalent amount of citrate buffer alone. One week later, just prior to experimentation, blood glucose levels were measured to determine diabetic status. Only rats with blood glucose higher than 20 mM were deemed STZ-diabetic.
Conscious rats were injected with the photosensitizing drug through the tail vein six hours prior to irradiation with red light onto the retina. […] Subsequently the eyes were enucleated and tested for Evan's Blue levels.

[4] = system: Vascular Endothelial Growth Factor evoked plasma extravasation; test: PDT of VEGF-165 evoked plasma extravasation (Evans Blue) in rat retina; assay type: in vivo, Wistar rats
Procedure: as §1
Rats anesthetized with a mixture of Ketamine and Zylazine (10 mg/kg) were injected with 2 μl of VEGF-165 prepared in saline, directly into the vitreous, using a Hamilton micro syringe. A period of 10 min was allotted for the plasma extravasation response to occur. After the response to VEGF-165 developed, the eyes were enucleated and subjected to spectrophotometric analysis for Evan's Blue.
[…] […] Subsequently the eyes were enucleated and tested for Evan's Blue levels.

EMT-6 mammary tumours [5] = test: PDT of EMT-6 mammary tumors in BALB/c mice; assay type: in vivo; details: for Necrosis (flat and necrotic tissue within 2 days post-PDT): light 24 h later, 670 nm, 400 J/cm^2

Substance	LD90 (light dose for 90% cell kill) ([1]; 6 h incubation) [J · cm^−2]	LD90 (light dose for 90% cell kill) ([1]; 24 h incubation) [J · cm^−2]	Relative phototoxicity within the alkylyl series ([1]; compounds 45-49, 6 h and 24 h incubation)	Tumor response (flattening and necrosis) within 48 h after PDT (EMT-6 mammary tumours [2]; all dye doses used, 0.5-1 μmole/kg)	Mortality (EMT-6 mammary tumours [2]; any of the dye and light doses used)	Mortality (EMT-6 mammary tumours [2]; dye dose 1 μmole/kg) [%]	Necrosis (flat and necrotic tissue within 2 days post-PDT) (EMT-6 mammary tumours [2]; dye dose 1 μmole/kg i.v., light 24 h later, 670 nm, 400 J/cm^2) [%]	Inhibition of plasma extravasation ([3]; light 6 h after drug, 45 J/cm2, total fluence 3 J)	Plasma extravasation after PDT ([3]; STZ-diabetic rats, interval drug to light extended from 1 hour up to 6 hours)	Relative potency as inhibitor of plasma extravasation ([3]; among the five molecules tested, light 6 h after drug)	Inhibition of plasma extravasation ([3]; diabetic rats, red light 680 nm, 25 mW/cm^2, 20 J/cm^2)	Inhibition of plasma extravasation ([4]; VEGF-165 injected rats, 0.5 μmole/kg, red light 680 nm, 25 mW/cm^2, 20 J/cm^2)	Plasma extravasation after PDT ([4]; VEGF-165 treated STZ-diabetic rats, 5 hour interval between photosensitizer administration and light)	Cure (absence of a palpable tumor 3 weeks post-PDT) (EMT-6 mammary tumours [5]; dye dose 0.5 μmole/kg) [%]	Mortality (EMT-6 mammary tumours [5]; dye dose 0.5 μmole/kg) [%]	Necrosis (flat and necrotic tissue within 2 days post-PDT) (EMT-6 mammary tumours [5]; dye dose 0.5 μmole/kg i.v.) [%]	Cure (absence of a palpable tumor 3 weeks post-PDT) (EMT-6 mammary tumours [5]; dye dose 0.75 μmole/kg) [%]	Mortality (EMT-6 mammary tumours [5]; dye dose 0.75 μmole/kg) [%]	Necrosis (flat and necrotic tissue within 2 days post-PDT) (EMT-6 mammary tumours [5]; dye dose 0.75 μmole/kg i.v.) [%]
Zinc tri-(4-sulfobenzo)-5-mono-[(1-hexynyl)naphtho]-porphyrazine [Compound 46]	4.1	1.2	highest phototoxicity	All treated tumors responded	No mortality occurred	0	100	completely inhibited plasma extravasation	reduced plasma extravasation to the level of control non-diabetic rats	most potent inhibitor of plasma extravasation	completely inhibited plasma extravasation to control levels	completely inhibited plasma extravasation to control levels	reach control levels	0	0	100	20	0	100
zinc trisulfophthalocyanine [ZnPcS3, reference compound]	5.9	2.2	–	–	–	–	–	–	–	–	–	–	–	–	–	–	–	–	–
